From US8110398B2, “Stable cell lines and methods for evaluating gastrointestinal absorption of chemicals” (Absorption Systems Group, LLC, priority 2006, dated 2012)

Experiments:
C2BBE1 cells = conditions: reference values; cited from earlier work
[1] = reference values; cited from earlier work
P-gp = P-gp (Homo sapiens, UniProt P08183); test: Calcein-AM assay; conditions: for RFU/μg of protein: 30 minutes
Experimental: Calcein-AM assay. To determine activity of the P-gp protein, calcein-AM assays were conducted.
To determine the P-gp activity, cells were plated in 96-well tissue culture plates and cultured for 48. After 48 hours, cell culture media was removed and the cells were washed with phosphate buffered saline solution (PBS). After washing, cells were incubated with 1 μM calcein-AM for 30 minutes. […] After incubation with calcein-AM, the cells were rinsed with fresh control buffer and fluorescence was measured using a Fluo-star fluorescence plate reader (BMG Lab Technologies, N.C.) with excitation and emission filters set at wavelengths of 485 nm and 538 nm, respectively.
Calcein-AM efflux is not mediated by BCRP. Therefore, any increase in calcein-AM uptake by the cells can be attributed to P-gp inhibition. The cells were plated in 96-well tissue culture plates and cultured for 48 hours. After 48 hours, cell culture media was removed and the cells were washed with phosphate buffered saline solution (PBS). After washing, cells were incubated with 1 μM calcein-AM for 30 minutes. […] After incubation with calcein-AM, the cells were rinsed with fresh control buffer and fluorescence was measured using a Fluo-star fluorescence plate reader (BMG Lab Technologies, N.C.) with excitation and emission filters set at wavelengths of 485 nm and 538 nm, respectively. The assay was carried out after each clone had been passaged 9 times.

MRP2 mRNA = test: RT-PCR of MRP2 mRNA expression in transduced C2BBe1 cells; assay type: cell-based, human; conditions: for Percent decrease in ratio compared to control: MRP2 mRNA vs vector control; for Ratio of MRP2 band intensity to β-actin band intensity: RT-PCR, C2BBe1 cells, passages 2 to 5
Experimental: (§1) RT-PCR. Total RNA was extracted from cells according to the following protocol. Cells were harvested from culture by centrifugation, resuspended in 1 ml of TRIzol® reagent (Invitrogen, Carlsbad, Calif.), and incubated at room temperature for 5 minutes with gentle shaking. The suspension was transferred to a 1.5 ml centrifuge tube, to which 200 μl of Chloroform was added, followed by an additional 5 minute incubation period with shaking. After incubation, the suspension was centrifuged at 12,000×g for 12 minutes at 4° C. The supernatant was transferred to a fresh, sterile 1.5 ml centrifuge tube, and supplemented with 0.5 ml of 2-propanaol per 1 ml of TRIzol reagent, and incubated for 10 minutes at room temperature. The mixture was then centrifuged at 12,000×g for an additional 12 minutes at 4° C. After centrifugation, the supernatant was removed and the pellet was washed with 75% ethanol. The sample was re-centrifuged at 7500×g for 5 minutes at 4° C., followed by the removal of the supernatant. The pellet was allowed to air dry at room temperature. The pellet was resuspended in pre-warmed (55° C.) nuclease-free water, and incubated at 55° C. for 10 minutes. RNA yield and purity were quantified by absorbance at 260 nm and 280 nm.
(§2) RT-PCR mixtures were set up as 50 μl samples containing buffer, 1-2 μg of RNA, 10 μM of Forward primer, 10 μM of Reverse primer, Taq polymerase, and water. Primers to amplify human P-gylcoprotein were as follows: P-gp Forward 5′-[…]-3′ (SEQ ID NO: 9); and, P-gp Reverse 5′-[…]-3′ (SEQ ID NO: 10). Primers to amplify human MRP2 were as follows: MRP2 Forward 5′-[…]-3′ (SEQ ID NO: 11); and, MRP2 Reverse 5′-[…]-3′ (SEQ ID NO: 12). Primes to amplify human BCRP were as follows: BCRP Forward 5′-[…] 3′ (SEQ ID NO: 13); and, BCRP Reverse 5′-[…] 3′ (SEQ ID NO: 14). Human β-actin was amplified in parallel as a positive control using the following primers: β-actin Forward 5′-[…]-3′ (SEQ ID NO: 15); and, β-actin Reverse 5′-[…]-3′ (SEQ ID NO: 16).
(§3) The PCR cycles proceeded in a programmable thermocycler with the following parameters: cDNA synthesis, 1 cycle, 55° C. for 30 minutes; denaturation, 1 cycle, 94° C. for 2 minutes; PCR amplification, 40 cycles of 94° C. for 15 seconds, 62° C. for 30 seconds, 72° C. for 1 minute; and, final extension, 1 cycle, 72° C. for 5 minutes. Amplification was confirmed by electrophoresis in 2% agarose gels.
For this example, gene expression of MRP2 in C2BBe1 cells was determined by observing both the MRP2 mRNA content as well as the protein content of the cells following viral transduction. To examine mRNA content, total cellular RNA was harvested and amplified by RT-PCR using primers specific to the MRP2 gene (SEQ ID NO: 11 and 12). The RT-PCR products were then analyzed after separation by electrophoresis on a 2% agarose gel.
Vector control (VC) cells were prepared from cells transducted with lentiviruses encoding a non-interfering nucleic acid sequence (SEQ ID NO 27), as described in Example 7. Methods were described in Example 1. […]

P-gp mRNA = test: RT-PCR of P-gp mRNA expression in transduced C2BBe1 cells; assay type: cell-based, human; conditions: RT-PCR, shRNA/P-gp clone cells
Experimental: as §1, §2, §3
Gene expression of P-gp in knockdown cells (shRNA/P-gp clones #83, 84, 85, 86, and 87) was determined by observing P-gp mRNA content, protein content and protein functional activity. RT-PCR was used to determine the expression of the P-gp mRNA. Total cellular RNA was harvested and amplified using primers specific to P-gp mRNA. RT-PCR products were then separated by electrophoresis on a 2% agarose gel. It was determined that 4 of the 5 shRNA/P-gp clone cells contained substantially less P-gp mRNA than control C2BBe1 cells (FIG. 2, top panel). β-actin was amplified, in parallel, as a positive control, and its expression was not affected by the interfering shRNA (FIG. 2, bottom panel).

Chain of P-gp (P08183 whole entry): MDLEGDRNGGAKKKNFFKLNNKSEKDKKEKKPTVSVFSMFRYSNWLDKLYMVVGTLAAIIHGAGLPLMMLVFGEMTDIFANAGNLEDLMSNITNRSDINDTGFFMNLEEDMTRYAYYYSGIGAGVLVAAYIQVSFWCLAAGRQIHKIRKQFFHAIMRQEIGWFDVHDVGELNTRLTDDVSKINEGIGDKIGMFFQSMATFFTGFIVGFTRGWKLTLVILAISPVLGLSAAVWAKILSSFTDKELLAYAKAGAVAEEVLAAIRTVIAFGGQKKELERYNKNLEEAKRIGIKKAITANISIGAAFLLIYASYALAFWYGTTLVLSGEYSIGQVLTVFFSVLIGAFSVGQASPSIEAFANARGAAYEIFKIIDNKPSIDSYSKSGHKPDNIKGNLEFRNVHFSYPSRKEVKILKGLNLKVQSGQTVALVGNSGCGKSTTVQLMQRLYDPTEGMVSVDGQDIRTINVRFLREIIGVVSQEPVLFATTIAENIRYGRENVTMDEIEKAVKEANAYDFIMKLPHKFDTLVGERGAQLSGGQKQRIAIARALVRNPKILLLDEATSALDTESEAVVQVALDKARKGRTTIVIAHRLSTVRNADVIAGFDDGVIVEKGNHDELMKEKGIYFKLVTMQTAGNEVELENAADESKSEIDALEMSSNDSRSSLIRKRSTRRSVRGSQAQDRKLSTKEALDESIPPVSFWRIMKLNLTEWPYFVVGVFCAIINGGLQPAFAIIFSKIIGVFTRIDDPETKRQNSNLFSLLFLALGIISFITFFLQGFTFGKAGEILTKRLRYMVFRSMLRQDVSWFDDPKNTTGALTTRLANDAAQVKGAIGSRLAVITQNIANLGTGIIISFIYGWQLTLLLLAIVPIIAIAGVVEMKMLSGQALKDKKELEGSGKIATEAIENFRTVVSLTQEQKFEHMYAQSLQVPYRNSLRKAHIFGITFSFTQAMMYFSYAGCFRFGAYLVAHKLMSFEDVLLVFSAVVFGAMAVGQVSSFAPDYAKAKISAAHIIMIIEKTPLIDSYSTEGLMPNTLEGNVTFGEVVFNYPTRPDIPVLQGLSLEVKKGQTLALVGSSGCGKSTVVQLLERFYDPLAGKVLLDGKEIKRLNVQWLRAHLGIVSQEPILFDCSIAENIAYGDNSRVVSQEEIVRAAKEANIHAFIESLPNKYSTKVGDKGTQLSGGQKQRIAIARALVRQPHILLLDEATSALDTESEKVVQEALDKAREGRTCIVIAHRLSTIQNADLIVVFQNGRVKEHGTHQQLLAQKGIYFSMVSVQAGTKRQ

Molecule: 1-Deamino-8-D-arginine
- Papp in C2BBE1 cells (C2BBE1 cells): 0.13 10^−6 cm/s

Molecule: CC(=O)Oc1ccccc1C(=O)O [Acetylsalicylic acid]
- Papp in C2BBE1 cells (C2BBE1 cells): 2.4 10^−6 cm/s
- % Absorption in human [1]: 100%

Molecule: C=CCc1ccccc1OCC(O)CNC(C)C (stereo not drawn) [Alprenolol]
- Papp in C2BBE1 cells (C2BBE1 cells): 40.5 10^−6 cm/s
- % Absorption in human [1]: 93%

Molecule: NC(=O)CC[C@@H]1NC(=O)[C@H](Cc2ccccc2)NC(=O)[C@H](Cc2ccc(O)cc2)NC(=O)[C@@H](N)CSSC[C@@H](C(=O)N2CCC[C@H]2C(=O)N[C@@H](CCCN=C(N)N)C(=O)NCC(N)=O)NC(=O)[C@H](CC(N)=O)NC1=O [Arginine-vasopressin]
- Papp in C2BBE1 cells (C2BBE1 cells): 0.14 10^−6 cm/s
- % Absorption in human [1]: 0%

Molecule: C[C@]12C[C@H](O)[C@H]3[C@@H](CCC4=CC(=O)CC[C@@]43C)[C@@H]1CC[C@@H]2C(=O)CO [Corticosterone]
- % Absorption in human [1]: 100%

Molecule: C[C@@H]1C[C@H]2[C@@H]3CCC4=CC(=O)C=C[C@]4(C)[C@@]3(F)[C@@H](O)C[C@]2(C)[C@@]1(O)C(=O)CO [Dexamethasone]
- % Absorption in human [1]: 100%

Molecule: CCOC(=O)C1=C(C)NC(C)=C(C(=O)OC)C1c1cccc(Cl)c1Cl (stereo not drawn) [Felodipine]
- Papp in C2BBE1 cells (C2BBE1 cells): 22.7 10^−6 cm/s

Molecule: OC[C@@H](O)[C@@H](O)[C@H](O)[C@H](O)CO [Mannitol]
- Papp in C2BBE1 cells (C2BBE1 cells): 0.18 10^−6 cm/s
- % Absorption in human [1]: 16%

Molecule: COCCc1ccc(OCC(O)CNC(C)C)cc1 (stereo not drawn) [Metoptolol]
- Papp in C2BBE1 cells (C2BBE1 cells): 27 10^−6 cm/s

Molecule: O=C(O)c1cc(/N=N/c2ccc(O)c(C(=O)O)c2)ccc1O [Olsalazine]
- Papp in C2BBE1 cells (C2BBE1 cells): 0.11 10^−6 cm/s
- % Absorption in human [1]: 2%

Molecule: CC(=O)Nc1ccc(OCC(O)CNC(C)C)cc1 (stereo not drawn) [Practolol]
- Papp in C2BBE1 cells (C2BBE1 cells): 0.9 10^−6 cm/s

Molecule: CC(C)NCC(O)COc1cccc2ccccc12 (stereo not drawn) [Propranolol]
- Papp in C2BBE1 cells (C2BBE1 cells): 41.9 10^−6 cm/s

Molecule: CC(C)(C)NCC(O)c1cc(O)cc(O)c1 (stereo not drawn) [Terbutaline]
- Papp in C2BBE1 cells (C2BBE1 cells): 0.38 10^−6 cm/s
- % Absorption in human [1]: 73%

Molecule: C[C@]12CC[C@H]3[C@@H](CCC4=CC(=O)CC[C@@]43C)[C@@H]1CC[C@@H]2O [Testosterone]
- % Absorption in human [1]: 100%

Molecule: CC(=O)CC(c1ccccc1)c1c(O)c2ccccc2oc1=O (stereo not drawn) [Warfarin]
- Papp in C2BBE1 cells (C2BBE1 cells): 38.3 10^−6 cm/s

Molecule: CC(=O)OCOC(=O)CN(CC(=O)OCOC(C)=O)Cc1cc2c(cc1OC(C)=O)Oc1cc(OC(C)=O)c(CN(CC(=O)OCOC(C)=O)CC(=O)OCOC(C)=O)cc1C21OC(=O)c2ccccc21 [calcein-AM]
- Normalized Mean Fluorescence (P-gp; Vector Control cells): 23.92
- Normalized Mean Fluorescence in the Presence of CSA (P-gp; Vector Control cells): 62.86
- Normalized Mean Fluorescence in the Presence of CSA (P-gp; shRNA/BCRP clone #801 cells, passage 20): 72.31
- Normalized Mean Fluorescence (P-gp; shRNA/BCRP clone #801 cells, passage 20, normalized for total protein): 5.08
- % decrease of Calcein-AM compared to vector control (P-gp; shRNA/BCRP clone cell #798): 0.33%
- RFU/μg of protein (P-gp; shRNA/BCRP clone cell #798, 1 μM calcein-AM, passaged 9 times): 10.13 RFU/μg of protein
- % decrease of Calcein-AM compared to vector control (P-gp; shRNA/BCRP clone cell #799): 31.18%
- RFU/μg of protein (P-gp; shRNA/BCRP clone cell #799, 1 μM calcein-AM, passaged 9 times): 6.99 RFU/μg of protein
- % decrease of Calcein-AM compared to vector control (P-gp; shRNA/BCRP clone cell #800): 58.07%
- RFU/μg of protein (P-gp; shRNA/BCRP clone cell #800, 1 μM calcein-AM, passaged 9 times): 4.26 RFU/μg of protein
- % decrease of Calcein-AM compared to vector control (P-gp; shRNA/BCRP clone cell #801): 89.37%
- RFU/μg of protein (P-gp; shRNA/BCRP clone cell #801, 1 μM calcein-AM, passaged 9 times): 1.08 RFU/μg of protein
- % decrease of Calcein-AM compared to vector control (P-gp; shRNA/BCRP clone cell #802): 33.42%
- RFU/μg of protein (P-gp; shRNA/BCRP clone cell #802, 1 μM calcein-AM, passaged 9 times): 6.76 RFU/μg of protein
- RFU/μg of protein (P-gp; vector control cells, 1 μM calcein-AM): 10.16 RFU/μg of protein

Molecule: shRNA/MRP2 #3: interfering RNA to MRP2, SEQ ID NO: 17, lentivirally transduced into C2BBe1 cells; clone #3 (CCGGCGTGTATAAATCCAGGACCAACTCGAGTTGGTCCTGGATTTATACACGTTTTTG; listed as Homo Sapiens)
- Percent decrease in ratio compared to control (MRP2 mRNA): 15.12%
- Ratio of MRP2 band intensity to β-actin band intensity (MRP2 mRNA): 0.57

Molecule: shRNA/MRP2 #4: interfering RNA to MRP2, SEQ ID NO: 18, lentivirally transduced into C2BBe1 cells; clone #4 (CCGGCCTGGTGGATAGCAACAATATCTCGAGATATTGTTGCTATCCACCAGGTTTTTG; listed as Homo Sapiens)
- Percent decrease in ratio compared to control (MRP2 mRNA): 15.31%
- Ratio of MRP2 band intensity to β-actin band intensity (MRP2 mRNA): 0.57

Molecule: shRNA/MRP2 #5: interfering RNA to MRP2, SEQ ID NO: 19, lentivirally transduced into C2BBe1 cells; clone #5 (CCGGGCATCTGAAGTCCCTGAGAAACTCGAGTTTCTCAGGGACTTCAGATGCTTTTTG; listed as Homo Sapiens)
- Percent decrease in ratio compared to control (MRP2 mRNA): 6.04%
- Ratio of MRP2 band intensity to β-actin band intensity (MRP2 mRNA): 0.63

Molecule: shRNA/MRP2 #6: interfering RNA to MRP2, SEQ ID NO: 20, lentivirally transduced into C2BBe1 cells; clone #6 (CCGGGCCGGTGGTCAGATTATCATTCTCGAGAATGATAATCTGACCACCGGCTTTTTG; listed as Homo Sapiens)
- Percent decrease in ratio compared to control (MRP2 mRNA): −7.59%
- Ratio of MRP2 band intensity to β-actin band intensity (MRP2 mRNA): 0.72

Molecule: shRNA/MRP2 #7: interfering RNA to MRP2, SEQ ID NO: 21, lentivirally transduced into C2BBe1 cells; clone #7 (CCGGCCATAGCTTCATTCCTGAGTACTCGAGTACTCAGGAATGAAGCTATGGTTTTTG; listed as Homo Sapiens)
- Percent decrease in ratio compared to control (MRP2 mRNA): 19.53%
- Ratio of MRP2 band intensity to β-actin band intensity (MRP2 mRNA): 0.54

Molecule: shRNA/P-gp #83: shRNA to human P-gp, SEQ ID NO: 1, lentivirally transduced into C2BBe1 cells; clone #83 (CCGGCCGAACACATTGGAAGGAAATCTCGAGATTTCCTTCCAATGTGTTCGGTTTTTG; listed as Homo Sapiens)
- P-gp function by intracellular calcein fluorescence (P-gp; transduced C2BBe1 cells vs Un-KD): significantly decreased
- P-gp mRNA expression relative to control C2BBe1 cells (P-gp mRNA): significantly reduced
